Test results published in paper PMC4978996 (Scientific Reports, 2016).
Where “and” joins values, the source holds several entries; their conditions need not be identical. Identical values can stand only once.

Columns and labels:
ChAT = tested on: ChAT; parameters: method as in literature; details: ChAT inhibition, experimentally determined value taken from literature; ref literature; cited from earlier work
[1] = tested on: purified human placental ChAT; parameters: method as in PMID 3361452; details: cited from earlier work
recombinant human ChAT = target: T1, recombinant human ChAT (Homo sapiens, UniProt P28329); experiment: Colorimetric ChAT assay with recombinant human ChAT protein; type: biochemical
T1 construct: His6 (N); made in house; host or cells: E. coli BL21 Rosetta2
T1 sequence (P28329 1-630 isoform P28329-3): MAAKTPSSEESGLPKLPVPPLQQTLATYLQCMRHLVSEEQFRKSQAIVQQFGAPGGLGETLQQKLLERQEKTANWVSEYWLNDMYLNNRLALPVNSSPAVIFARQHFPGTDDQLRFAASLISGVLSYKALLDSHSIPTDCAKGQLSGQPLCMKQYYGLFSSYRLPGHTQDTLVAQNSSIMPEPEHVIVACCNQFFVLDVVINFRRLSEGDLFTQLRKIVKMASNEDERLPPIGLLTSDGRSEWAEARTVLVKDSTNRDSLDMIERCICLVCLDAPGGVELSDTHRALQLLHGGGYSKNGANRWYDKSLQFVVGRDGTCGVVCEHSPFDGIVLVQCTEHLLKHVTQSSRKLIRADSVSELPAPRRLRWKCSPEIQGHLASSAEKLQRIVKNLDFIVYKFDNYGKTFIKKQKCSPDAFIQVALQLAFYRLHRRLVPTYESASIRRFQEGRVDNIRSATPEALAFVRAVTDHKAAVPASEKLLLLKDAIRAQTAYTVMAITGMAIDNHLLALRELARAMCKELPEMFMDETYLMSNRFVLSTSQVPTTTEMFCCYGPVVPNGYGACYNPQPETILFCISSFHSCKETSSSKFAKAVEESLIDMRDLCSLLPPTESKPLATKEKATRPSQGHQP
Experimental: ChAT activity was measured with a new colorimetric assay as described previously, using recombinant ChAT protein. Briefly, 20 μL/wells of 1.5 μg/ml of the recombinant ChAT was incubated with 20 μL/well of different concentrations of α-NETA for 30 minutes at room temperature in dilution buffer (10 mM Tris-HCl, pH 7.4, 150 mM NaCl, 1.0 mM EDTA, 0.05% (v/v) Triton X-100). […]
Then 50 μl of a cocktail-B [phosphate buffered saline, containing 0.93 U/ml choline oxidase (C5896, Sigma-Aldrich), 1/5000 U streptavidin-horseradish peroxidase, 6.3 mM phenol, and 3 mM 4-aminoantipyrine (A4382, Sigma-Aldrich)] was added to each sample including the standards. Absorbance was then monitored using a microplate spectrophotometer reader (Infinite M1000, Tecan) at 500 nm wavelength. ChAT activity (nmol/min/mg of recombinant protein) was calculated according to the following formula: ChAT activity [ChBL-ChS]/t/m, where ChBL is the measured number of mole of choline in control wells lacking the inhibitor and ChAT, ChS is the measured number of mole of choline in the sample wells, the t is the incubation time and m is the mass of ChAT protein added per sample well. […]

AChE = target: T2, AChE (Homo sapiens, UniProt P22303); experiment: Modified Ellman's colorimetric assay, AChE activity; type: biochemical
T2 construct: purchased Sigma
Experimental: (§1) A modified version of Ellman’s colorimetric assay was used for the enzymatic activity of BuChE and AChE, as described previously. For BuChE activity, 50 μL/well of a 1:400 diluted solution of a pooled human plasma sample was used. For AChE activity, the 1:400 diluted pooled human plasma samples had been supplied with 50 ng/ml of purified AChE protein (Sigma). These were preincubated with 50 μL/wells of different concentrations of α-NETA for 30 minutes at room temperature. Then, 100 μL of a cocktail (Na/K phosphate buffer, containing 5,5′-dithiobis(2-nitrobenzoic acid) (DTNB, final concentration 0.4 mM) and butyrylthiocholine iodide (Sigma, final concentration 5 mM) or acetylthiocholine iodide (Sigma, final concentration 0.5 mM) were added and the changes in absorbance was monitored at one minutes intervals at 412 nm wavelength. For the AChE activity, the cocktail also contained the selective BuChE inhibitor ethopropazine (Sigma, final concentration 0.1 mM).

BuChE = target: T3, BuChE (Homo sapiens, UniProt P06276); experiment: biochemical
T3 construct: a 1:400 diluted solution of a pooled human plasma sample was used; from tissue; host or cells: pooled human plasma
Experimental: as §1

T2 sequence (P22303 32-614): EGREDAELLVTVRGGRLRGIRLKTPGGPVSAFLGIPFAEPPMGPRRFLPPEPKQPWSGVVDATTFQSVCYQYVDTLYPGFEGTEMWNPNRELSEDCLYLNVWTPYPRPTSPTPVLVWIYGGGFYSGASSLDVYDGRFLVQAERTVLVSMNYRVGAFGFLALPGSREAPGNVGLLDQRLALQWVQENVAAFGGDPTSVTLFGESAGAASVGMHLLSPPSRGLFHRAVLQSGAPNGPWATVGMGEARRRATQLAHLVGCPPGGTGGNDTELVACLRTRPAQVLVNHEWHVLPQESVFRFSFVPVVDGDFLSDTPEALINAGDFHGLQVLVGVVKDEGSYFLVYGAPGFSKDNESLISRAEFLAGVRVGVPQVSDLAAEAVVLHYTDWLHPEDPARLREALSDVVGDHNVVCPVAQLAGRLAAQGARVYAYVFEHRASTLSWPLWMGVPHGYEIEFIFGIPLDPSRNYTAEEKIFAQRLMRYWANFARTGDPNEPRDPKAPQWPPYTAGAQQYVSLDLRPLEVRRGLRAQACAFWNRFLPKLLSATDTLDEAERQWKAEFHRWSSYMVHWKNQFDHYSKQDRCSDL
T3 sequence (P06276 29-602): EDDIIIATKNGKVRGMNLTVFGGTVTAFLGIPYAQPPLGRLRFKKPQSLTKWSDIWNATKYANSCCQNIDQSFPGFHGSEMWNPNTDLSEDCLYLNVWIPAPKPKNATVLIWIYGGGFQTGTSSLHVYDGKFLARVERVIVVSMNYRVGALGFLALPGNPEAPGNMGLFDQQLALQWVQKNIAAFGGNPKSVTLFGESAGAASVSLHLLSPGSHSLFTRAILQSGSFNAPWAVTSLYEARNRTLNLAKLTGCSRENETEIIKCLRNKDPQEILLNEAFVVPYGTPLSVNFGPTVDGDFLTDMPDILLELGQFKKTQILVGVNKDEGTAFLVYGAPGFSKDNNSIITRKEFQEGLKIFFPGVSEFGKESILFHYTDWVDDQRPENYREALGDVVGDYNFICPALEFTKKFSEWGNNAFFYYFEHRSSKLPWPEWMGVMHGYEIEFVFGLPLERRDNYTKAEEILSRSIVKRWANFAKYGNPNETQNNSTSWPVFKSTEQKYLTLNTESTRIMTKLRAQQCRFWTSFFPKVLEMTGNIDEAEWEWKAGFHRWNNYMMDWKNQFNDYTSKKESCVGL

SMILES | Actual pIC50 / Observed pIC50 (ChAT) | further results
Cc1ccc(/C=C/c2cc[n+](C)cc2)cc1 [Compound 8] | 4.70 | –
Cc1c[n+](C)ccc1/C=C/c1ccccc1 [Compound 16] | 5.30 | –
Cc1c[n+](C)ccc1/C=C/c1cccc2ccccc12 [Compound 13] | 6.40 | –
C[n+]1ccc(/C=C/c2ccc(F)cc2)cc1 [Compound 9] | 4.68 | –
Cc1c[n+](C)ccc1/C=C/c1ccc(Cl)c(Cl)c1 [Compound 15] | 5.77 | –
C[n+]1ccc(/C=C/c2cccc([N+](=O)[O-])c2)cc1 [Compound 11] | 3.83 | –
C[n+]1ccc(/C=C/c2ccccc2)cc1 [Compound 7] | 4.83 | –
Cc1c[n+](C)ccc1/C=C/c1ccccc1Cl [Compound 17] | 4.77 | –
C[n+]1ccc(/C=C/c2ccccc2)c2ccccc21 [Compound 21] | 5.46 | –
C[n+]1ccc(/C=C/c2cccs2)c2ccccc21 [Compound 22] | 3.60 | –
C[n+]1ccc(/C=C/c2ccc(Cl)c(Cl)c2)cc1 [Compound 5] | 5.48 | –
C[n+]1ccc(/C=C/c2ccccc2Cl)cc1 [Compound 10] | 4.56 | –
C[N+](C)(C)CCC(=O)c1cccc2ccccc12.[I-] [α-NETA, 2-(α-naphthoyl) ethyltrimethylammonium iodide] | – | Observed pIC50 (reported pIC50) [1]: 5.05; IC50 ([1]; read-out: IC50 (reported, ChAT)): ~9 µM; higher potency as ChAT inhibitor in this system than reported (recombinant human ChAT; IC50 88 nM versus reported ~9 μM): ~ 100 folds; IC50 (recombinant human ChAT; recombinant human ChAT, 30 min preincubation): ~0.088 µM and 0.088 µM; IC50 (AChE; 30 min preincubation): ~30 µM and 34.2 µM; inhibition at 10 µM (AChE; at a concentration of 10 μM): 10%; selectivity for ChAT compared to AChE (AChE; based on IC50 ratios): 388 fold and ~ 388 fold; inhibition at 3 µM (BuChE; at a concentration of 3 μM): 10%; selectivity for ChAT relative to BuChE (BuChE; based on IC50 ratios): ~ 378 fold; IC50 (BuChE; pooled human plasma, 30 min preincubation): ~30 µM and 33.3 µM
C[n+]1ccc(/C=C/c2cccc3ccccc23)cc1 [Compound 1] | 6.33 | –
C[n+]1ccc(/C=C/c2cccnc2)c2ccccc21 [Compound 23] | 3.22 | –
C[n+]1ccc(/C=C/c2ccc([N+](=O)[O-])cc2)cc1 [Compound 12] | 3.70 | –
OCC[n+]1ccc(/C=C/c2cccc(Cl)c2)cc1 [Compound 20] | 5.62 | –
OCC[n+]1ccc(/C=C/c2cccc(Br)c2)cc1 [Compound 19] | 5.38 | –
C[n+]1ccc(/C=C/c2cccc(Br)c2)cc1 [Compound 2] | 5.83 | –
Cc1c[n+](C)ccc1/C=C/c1cccc(Cl)c1 [Compound 14] | 5.80 | –
Cc1c[n+](C)ccc1/C=C/c1c[nH]c2ccccc12 [Compound 18] | 4.41 | –
C[n+]1ccc(/C=C/c2ccc(Br)cc2)cc1 [Compound 4] | 5.59 | –
OCC[n+]1ccc(/C=C/c2ccccc2)c2ccccc21 [Compound 25] | 5.54 | –
OCC[n+]1ccc(/C=C/c2cccc3ccccc23)c2ccccc21 [Compound 24] | 6.28 | –
C[n+]1ccc(/C=C/c2ccc(Cl)cc2)cc1 [Compound 6] | 5.16 | –
C[n+]1ccc(/C=C/c2cccc(Cl)c2)cc1 [Compound 3] | 5.64 | –
